Experimental data from patent publication US20240325385A1, “ANTI-TUMOR PHARMACEUTICAL COMPOSITION COMPRISING EZH2 INHIBITOR AND SCD1 INHIBITOR AND USE THEREOF” (PEKING UNIVERSITY THIRD HOSPITAL, priority 2021, published 2024).
pIC50: −log10 of the molar value. “Also recorded” adds a separate entry of the source. One block for each compound: values may come before it.

What was measured:
[1] = test system: B16F10 cells; test: Apoptosis by flow cytometry and Annexin V live-cell imaging, B16F10; assay type: cell-based; settings: B16F10, 10 μM
Protocol: (§1) FIG. 2: Melanoma cells B16F10 are less sensitive to GSK126. (A) Cell scratch assay, showing the effect of GSK126 (10 μM) treatment on the migration capability of B16F10 cells, with 3 replicates per group; (B-C) the effect of GSK126 (10, 13, and 15 μM) on the apoptosis rate of B16F10 cells, as examined by flow cytometry […] and Annexin V staining assay. 3 replicates were established for each group, with *P<0.05, **P<0.01, and ***P<0.001, and ns for no statistical difference.
(§2) Next, to further validate the effect of GSK126 at 10 μM on melanoma cells B16F10, scratch assay was conducted. […] In addition, to assess the anti-survival effect of GSK126, B16F10 cells were treated by GSK126 at different concentrations for different durations, and the apoptosis rate of the cells was analyzed by flow cytometry (section B of FIG. 2) and live-cell fluorescence imaging (section C of FIG. 2).

[2] = test system: Daudi cells; test: UPLC-MS/MS metabolomics of Daudi cells; assay type: cell-based; settings: GSK126 6 μM vs control
Protocol: (§3) FIG. 5: Effect of GSK126 on the metabolic profile of Daudi cells. (A) Orthogonal partial least squares discriminant analysis (OPLS-DA) score plot based on metabolic analysis (6 replicates per group). C: control, G: GSK126 treatment. (B) Score plot for validating the OPLS-DA model (R2Y=0.973; Q2Y=0.931). (C) The number of metabolites of each category in metabolomics. […] (E) Viability of Daudi cells after palmitic acid treatment was analyzed by CCK-8 kit (3 replicates per group). 3-6 replicates per group, *P<0.05, **P<0.01.
(§4) FIG. 6: The combination with an SCD1 inhibitor enhances the inhibitory effect of GSK126 on cancer cells. (A) Differential metabolites between DMSO and GSK126-treated Daudi cells. […] Metabolite categories are shown in different colors. […] (C) The mRNA levels of lipid metabolism genes in GSK126-treated Daudi cells were detected by RT-qPCR (3 replicates per group). (D) Viability of GSK126 and palmitinic acid-treated Daudi cells was analyzed by CCK-8 assay kit (5 replicates per group). (E) Viability of GSK126 and stearic acid-treated Daudi cells was analyzed by CCK-8 assay kit (5 replicates per group). (F) Proliferation curves of B16F10 and SMMC7721 cells treated with GSK126 and MF-438 were monitored by IncuCyte S3 (5 replicates per group). (G) CCK-8 assay kit detects the viability of B16F10 and SMMC7721 cells treated with GSK126 and MF-438. CI is calculated by CompuSyn software. CI<0.9 indicates synergism and CI>1.1 indicates antagonism. (H) Schematic diagram of mouse tumor-bearing experiment. (I-J) Tumor weight (I) and tumor growth curve (J) of the mice loaded with B16F10 cells. The tumor volume was measured with a vernier caliper every 2 days. Tumor volume=(length*width*width)/2. (K) Representative tumor pictures of all experimental groups. 3-8 replicates per group, *P<0.05, **P<0.01, ***P<0.001.
In order to verify that the lipid metabolism of cancer cells is the key factor affecting the sensitivity of the EZH2 inhibitor, UPLC-MS/MS system was used to analyze the metabolomics of the Daudi cells treated with GSK126 at a concentration of 6 μM (close to the IC50 value). The differences in the metabolome between the cells in the control group and the GSK126 treatment group were obvious by OPLS-DA analysis (sections A and B of FIG. 5). There were 71 metabolites with significant changes and VIP values greater than 1.0.

[3] = test system: hepatoma Huh7 cells; test: IncuCyte S3 live-cell proliferation (confluence), Huh7; assay type: cell-based
Protocol: (§5) FIG. 1: Hematological tumors are more sensitive to GSK126 than solid tumors. (A) Proliferation of B16F10, Huh7 and SMMC7721 cells in GSK126 (10-20 μM) treatment group was monitored by Incucyte S3, with 6 replicates per group; (B) viability of Daudi and THP-1 cells after GSK126 (200 nM-24 μM) treatment for 24 h and 48 h was measured by CCK-8 assay, with 5 replicates per group; (C) western blot analysis (WB) of B16F10 cells 48 h after the treatment without or with GSK126 (6 μM, 12 μM), with H3 used as an internal reference for histone. 5 to 6 replicates were established for each group, with *P<0.05, **P<0.01, and ***P<0.001, and ns for no statistical difference.
(§6) In order to accurately assess the responsiveness of solid tumor cells to EZH2 inhibitors, the effects of GSK126 at different concentrations on the proliferation of melanoma B16F10 cells and hepatoma Huh7 and SMMC-7721 cells were initially detected by IncuCyte S3×Live-Cell Analysis System.
(§7) • (1) Cells in the logarithmic growth phase were digested with 0.25% trypsin and the digestion was terminated by the addition of serum-containing medium. It was then centrifuged at 200 g for 5 min; • (2) The single cell suspension at the corresponding concentration was prepared by a microscopic counting method, and then added into a 96-well culture plate, so that the volume of the culture medium in each well was 150 μL (about 5000 cells). […]

[4] = test system: melanoma B16F10 cells; test: Metabolite (fatty acid) levels in GSK126-treated B16F10 cells; assay type: cell-based; settings: GSK126 group
Description: FIG. 3: GSK126 results in significant elevated levels of 6 fatty acids in melanoma B16F10 cells.
Among the metabolites with significant changes, the levels of many fatty acids increased in the GSK126 group. There are five polyunsaturated fatty acids, including α-linolenic acid, DHA, EPA, linoleic acid, and γ-linolenic acid) and one monounsaturated fatty acid, i.e., 10Z-heptadienoic acid (FIG. 3).

[5] = test system: hematologic cancer cell lines; settings: most hematologic cancer cell lines; many studies; read-out: IC50 (half-maximal inhibitory concentration); cited from earlier work
[6] = test system: ACLY, FASN, and SCD in SMMC7721; test: RT-qPCR and WB of fatty acid synthesis genes, SMMC7721; assay type: cell-based
Description: (§8) FIG. 4: Lipid accumulation in mice after GSK126 treatment. (A) H & E and oil red O staining of the liver tissue sections of the tumor-bearing mice in the control group and the GSK126 treatment group, in which the statistical results of negative or positive staining area were shown on the right (3 replicates per group); (B) TG level in the serum of the tumor-bearing mice in the control group and the GSK126 treatment group (5 replicates per group); (C-D) mRNA (C) and protein (D) levels of the genes related to fatty acid anabolism in the GSK126-treated HCC cells, as detected by RT-qPCR and WB (3 replicates per group). 3 to 5 replicates were established for each group, with *P<0.05, **P<0.01.
(§9) C57BL/6 mice of 6-8 weeks old were subcutaneously implanted with B16F10 cells and treated with GSK126 again. […] Therefore, the expression of the fatty acid synthesis-related genes in GSK126-treated hepatocellular carcinoma (HCC) cell lines SMMC7721 and Huh7 was further detected.

[7] = test system: melanoma B16F10 cells; test: IncuCyte S3 live-cell proliferation (confluence), B16F10; assay type: cell-based
Protocol: as §5, §6, §7

[8] = test system: hepatoma SMMC-7721 cells; test: IncuCyte S3 live-cell proliferation (confluence), SMMC-7721; assay type: cell-based
Protocol: as §5, §6, §7

[9] = test system: melanoma cells B16F10; test: Cell scratch (migration) assay, B16F10; assay type: cell-based; settings: B16F10, 10 μM, 36 h of culture, vs control group
Protocol: as §1, §2

[10] = test system: Burkitt lymphoma cells (Daudi); test: CCK-8 cell proliferation/viability assay, Daudi; assay type: cell-based; settings: for cell viability inhibited by GSK126, on fatty acid supplementation: with GSK126, CCK-8
Protocol: as §5, §3, §4

[11] = test system: ELOVL2, SCD1, and FASN in Daudi cells; test: RT-qPCR of lipid metabolism genes in Daudi cells; assay type: cell-based; settings: mRNA
Protocol: as §4, with “***P<0.001. […]” for “***P<0.001.”

[12] = test system: H3K27me3 level in B16F10 cells; test: Western blot of H3K27me3 in B16F10 cells; assay type: cell-based; settings: 6 μM, 48 h, WB
Protocol: as §5

[13] = test system: ACLY, FASN, and SCD in Huh7; test: RT-qPCR and WB of fatty acid synthesis genes, Huh7; assay type: cell-based
Description: as §8, §9

[14] = test system: hematological tumor cells THP-1; test: CCK-8 cell proliferation/viability assay, THP-1; assay type: cell-based; settings: 10 μM, 24 h and 48 h
Protocol: as §5

[15] = GSK126 at different concentrations (10-20 μM)

pIC50 ([10]; Daudi cells): ~5.22
SMILES: CC[C@H](C)n1cc(C)c2c(C(=O)NCc3c(C)cc(C)[nH]c3=O)cc(-c3ccc(N4CCNCC4)nc3)cc21 [GSK126]
induction of apoptosis [1]: limited capability to induce apoptosis
down-regulated metabolites [2]: 6
fatty acids (incl. ricinoleic acid, DPA n-6) [2]: four fatty acids decreased
metabolites with significant changes and VIP values greater than 1.0 [2]: 71
up-regulated metabolites [2]: 65
cell proliferation ([3]; GSK126 10 μM): less effective
cell proliferation [3, 15]: inhibited cell proliferation in a dose-dependent manner
levels of fatty acids (five polyunsaturated, one monounsaturated) [4]: increased
pIC50 [5]: > 6.00
mRNA and protein levels of ACLY, FASN, and SCD [6]: significantly elevated
cell proliferation ([7]; GSK126 10 μM): less effective; also recorded: could not be effectively inhibited
cell proliferation [7, 15]: inhibited cell proliferation in a dose-dependent manner
cell proliferation ([8]; GSK126 10 μM): less effective
cell proliferation [8, 15]: inhibited cell proliferation in a dose-dependent manner
cell migration [9]: did not effectively inhibit cell migration
sensitivity of Daudi cells ([10]; 1 μM, CCK-8): very sensitive
proliferation of Daudi cells ([10]; 10 μM, 24 h and 48 h, CCK-8): significantly inhibited
expression of ELOVL2, SCD1, and FASN [11]: did not upregulate
H3K27me3 level [12]: significantly down-regulated
mRNA and protein levels of ACLY, FASN, and SCD [13]: significantly elevated
proliferation of THP-1 cells [14]: significantly inhibited

SMILES: CCCCCCCCCCCCCCCC(=O)O [palmitic acid]
cell proliferation (viability) on fatty acid addition ([10]; Daudi cells, CCK-8): moderately promoted
cell viability inhibited by GSK126, on fatty acid supplementation ([10]; Daudi cells): recovered the cell viability inhibited by GSK126 to varying degrees

SMILES: CCCCCCCCCCCCCCCCCC(=O)O [stearic acid]
cell proliferation (viability) on fatty acid addition ([10]; Daudi cells, CCK-8): moderately promoted
cell viability inhibited by GSK126, on fatty acid supplementation ([10]; Daudi cells): recovered the cell viability inhibited by GSK126 to varying degrees
